Data set [1] in a line: Rodent brain penetration study. The format is in vivo. The note with it: rat, po, fed male Wistar rats, 3 mg/kg p.o., mean ± S.D, n = 3, read-out: Rat Brain Penetration (Cbrain/Cplasma) at 3 mg/kg, p.o. @ 1 h. The protocol: Male Wistar rats (260±40 g) were used as experimental animals. Three animals were housed in each cage. Animals were given water and food ad libitum throughout the experiment and maintained on a 12 h light/dark cycle.
Brain penetration was determined in discrete manner in rats. One day prior to dosing, male Wistar rats were acclimatized and randomly grouped according to their body weight. At each time point (0.50, 1 and 2 h), n=3 animals were used.
The test compounds were suitably preformulated and administered orally at (free base equivalent) 3 mg/kg. Blood samples were removed via cardiac puncture under isoflurane anesthesia. The animals were sacrificed to collect brain tissue. Plasma was separated and brain samples were homogenized. Plasma and brain homogenates were stored frozen at −20° C. until analysis. The concentrations of the test compounds in plasma and brain were determined using LC-MS/MS method.
The test compounds were quantified in plasma and brain homogenate by qualified LC-MS/MS method using suitable extraction technique in the calibration range of 1-500 ng/mL. Study samples were analyzed using calibration samples in the batch and quality control samples spread across the batch. Extent of brain-plasma ratio (Cbrain/Cplasma) was calculated.

Data set [2] addresses T1, cloned human 5-HT2A receptor (Homo sapiens, UniProt P28223).
T1 construct: expressed in transfected cells; host or cells: CHO-K1
Nature of the data set: Determination of Ki at 5-HT2A receptor (radioligand binding, [3H]-Ketanserine). Conditions: CHO-K1 recombinant cells, [3H]-Ketanserine 1.25 nM. The method, boiled down: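 Membranes from CHO-K1 cells expressing the receptor, incubated 1 h at r.t. with 1.25 nM [3H]-ketanserin in pH 7.4 Tris-HCl 50 mM, 4 mM CaCl2, 0.1% ascorbic acid. Nonspecific binding defined with 0.1 mM 1-naphthylpiperazine; bound label measured after filtration.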

The target in data set [3] is T2, cloned human 5-HT1A receptor (Homo sapiens, UniProt P08908).
T2 construct: expressed in transfected cells; host or cells: HEK293-EBNA
T2 sequence (P08908 1-422): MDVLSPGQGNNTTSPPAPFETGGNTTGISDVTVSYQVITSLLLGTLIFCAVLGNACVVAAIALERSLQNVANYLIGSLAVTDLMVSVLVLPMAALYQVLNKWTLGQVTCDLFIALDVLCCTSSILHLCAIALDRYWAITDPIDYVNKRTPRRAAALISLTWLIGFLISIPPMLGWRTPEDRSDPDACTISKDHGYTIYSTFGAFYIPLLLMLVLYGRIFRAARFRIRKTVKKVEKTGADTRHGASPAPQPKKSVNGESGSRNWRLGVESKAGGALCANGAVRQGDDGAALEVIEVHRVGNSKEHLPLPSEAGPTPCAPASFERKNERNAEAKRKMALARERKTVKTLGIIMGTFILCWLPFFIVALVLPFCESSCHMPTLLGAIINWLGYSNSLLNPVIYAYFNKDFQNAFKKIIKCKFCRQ
Nature of the data set: Determination of Ki at 5-HT1A receptor (radioligand binding, [3H]-8-Hydroxy DPAT). The note with it: HEK293-EBNA recombinant cells, [3H]-8-Hydroxy DPAT 0.8 nM. Put shortly: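 Membranes from HEK293-EBNA cells expressing recombinant human 5-HT1A were incubated with 0.8 nM [3H]-8-hydroxy-DPAT for 2 h at r.t. in pH 7.4 Tris-HCl buffer with EDTA, MgSO4 and ascorbic acid. Non-specific binding was defined with 0.1 mM U92016A; bound radioactivity after filtration was compared with controls.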

Data set [4] deals with T3, hD2S (cloned human dopamine D2S receptor) (Homo sapiens, UniProt P14416).
T3 construct: expressed in transfected cells; host or cells: CHO-K1
T3 sequence (P14416 1-414 isoform P14416-2): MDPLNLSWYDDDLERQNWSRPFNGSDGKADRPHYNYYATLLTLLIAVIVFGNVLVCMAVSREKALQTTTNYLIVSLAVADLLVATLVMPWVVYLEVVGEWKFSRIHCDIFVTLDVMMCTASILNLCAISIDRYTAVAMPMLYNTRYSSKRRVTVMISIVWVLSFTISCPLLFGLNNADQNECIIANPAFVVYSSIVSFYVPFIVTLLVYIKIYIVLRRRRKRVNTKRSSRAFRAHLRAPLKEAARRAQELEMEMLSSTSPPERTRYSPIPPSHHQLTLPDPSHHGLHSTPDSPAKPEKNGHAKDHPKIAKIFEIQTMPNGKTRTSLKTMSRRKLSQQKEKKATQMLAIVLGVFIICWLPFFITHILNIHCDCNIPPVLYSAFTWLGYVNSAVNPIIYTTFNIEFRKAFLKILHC
Nature of the data set: Determination of Ki at D2S receptor (radioligand binding, [3H]-Raclopride). The note with it: CHO-K1 recombinant cells, [3H]-Raclopride 4 nM. The method, boiled down: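 Displacement of 4 nM [3H]-Raclopride from membranes of CHO-K1 cells expressing the receptor, 2 h at r.t. in 50 mM Tris-HCl pH 7.4 with 120 mM NaCl, 5 mM KCl, 5 mM MgCl2, 1 mM EDTA. Non-specific binding defined with 0.1 mM haloperidol; filter-bound radioactivity compared with control.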

Data set [5] has as its target T4, recombinant rat 5-HT7 receptor (Rattus norvegicus, UniProt P32305).
T4 construct: expressed in transfected cells
Nature of the data set: Determination of Kb at 5-HT7 receptor, pCRE-Luc reporter gene assay in CHO cells. Format: cell-based.

For data set [6], the target named is T4, recombinant rat 5-HT7 receptor. The data set is described as above. The format is cell-based. The note with it: for antagonistic activity at rat recombinant 5-HT7 receptor: pCRE-Luc reporter gene assay. The protocol:
A stable CHO cell line expressing recombinant rat 5-HT7 receptor and pCRE-Luc reporter system was used for cell-based assay. The assay offers a non-radioactive based approach to determine binding of a compound to GPCRs. In this specific assay, the level of intracellular cAMP which is modulated by activation or inhibition of the receptor is measured. The recombinant cells harbor luciferase reporter gene under the control of cAMP response element.
The above cells were grown in 96 well clear bottom white plates in Hams F12 medium containing 10% fetal bovine serum (FBS). Prior to the addition of compounds or standard agonist, cells were serum starved overnight. Increasing concentrations of test compound were added along with 1 μM of serotonin in Opti-MEM medium to the cells. The incubation was continued at 37° C. in CO2 incubator for 4 hours. Medium was removed and cells were washed with phosphate buffered saline. The cells were lysed and luciferase activity was measured in a Luminometer. Luminescence units were plotted against the compound concentrations using GraphPad Prism software. EC50 values of the compounds were defined as the concentration required in reducing the luciferase activity by 50%. The Kb values were calculated by feeding the concentration of agonist used in the assay and its EC50 value in the same software.
For orientation: Reporter assays use an easily measured gene product as a stand-in for the process of interest.

The mark [7] stands for this setting: rat receptor, with 1 μM serotonin, luciferase readout, read-out: Kb at 5-HT7 receptor.

The text below walks through data of patent US12391698B2, “Substituted piperidines and piperazines and methods for the treatment of CNS disorders” (SUVEN LIFE SCIENCES LIMITED, priority 2022, dated 2025).

The structures appear in SMILES notation. Counter-ions that a name gives are not always drawn. Like-named read-outs stand apart in the source and are kept apart here.

T4 sequence (P32305 whole entry): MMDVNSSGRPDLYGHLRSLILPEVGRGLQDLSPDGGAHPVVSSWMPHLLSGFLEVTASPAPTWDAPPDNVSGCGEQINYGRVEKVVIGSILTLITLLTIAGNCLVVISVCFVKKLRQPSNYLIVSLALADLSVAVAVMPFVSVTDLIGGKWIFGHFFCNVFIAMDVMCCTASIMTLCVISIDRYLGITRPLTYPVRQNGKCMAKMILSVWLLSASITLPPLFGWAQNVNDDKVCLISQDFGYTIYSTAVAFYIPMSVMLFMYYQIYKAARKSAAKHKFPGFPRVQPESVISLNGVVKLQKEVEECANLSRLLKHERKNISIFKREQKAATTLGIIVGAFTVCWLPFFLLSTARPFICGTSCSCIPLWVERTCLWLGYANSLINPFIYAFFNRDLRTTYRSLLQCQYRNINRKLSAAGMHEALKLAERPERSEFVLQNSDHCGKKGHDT
T1 sequence (P28223 whole entry): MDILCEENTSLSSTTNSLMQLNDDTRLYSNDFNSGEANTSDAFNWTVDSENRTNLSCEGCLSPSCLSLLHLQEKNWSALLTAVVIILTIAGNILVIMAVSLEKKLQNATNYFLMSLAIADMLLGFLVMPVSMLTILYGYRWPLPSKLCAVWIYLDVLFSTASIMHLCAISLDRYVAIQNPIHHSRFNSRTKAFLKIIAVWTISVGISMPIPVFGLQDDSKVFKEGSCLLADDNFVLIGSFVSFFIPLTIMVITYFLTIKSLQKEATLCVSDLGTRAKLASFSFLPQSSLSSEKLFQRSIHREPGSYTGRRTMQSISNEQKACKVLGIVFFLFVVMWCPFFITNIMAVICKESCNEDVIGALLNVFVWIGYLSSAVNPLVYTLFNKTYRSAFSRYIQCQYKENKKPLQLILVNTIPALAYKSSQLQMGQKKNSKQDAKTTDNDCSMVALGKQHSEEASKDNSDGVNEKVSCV

In the case of `O=C1C[C@@H]2CCCN2C(=O)N1CCCCN1CCN(c2cccc3sccc23)CC1` [Example 4, 2-[4-(4-Benzo[b]thiophen-4-yl-piperazin-1-yl)-butyl]-tetrahydro-pyrrolo[1,2-c]pyrimidine-1,3-dione oxalate], the Kp at 1 h in data set [1] (brain/plasma) worked out at 2.14 ± 0.88. The Ki was found to be 4.24 nM in data set [2] (read-out: Ki h5-HT2A), 0.195 nM in data set [3] (read-out: Ki h5-HT1A) and 1.83 nM in data set [4] (read-out: Ki hD2S).

For the compound `O=C1C[C@@H]2C[C@H](F)CN2C(=O)N1CCCCN1CCN(c2nsc3ccccc23)CC1` [Example 9, 2-[4-(4-Benzo[d]isothiazol-3-yl-piperazin-1-yl)-butyl]-6-fluoro-tetrahydro-pyrrolo[1,2-c]pyrimidine-1,3-dione oxalate], the Kp at 1 h in data set [1] (brain/plasma) was 0.4 ± 0.13. For the same compound, the Ki in data set [2] (read-out: Ki h5-HT2A) came to 2.49 nM; in data set [3] (read-out: Ki h5-HT1A), 0.89 nM; in data set [4] (read-out: Ki hD2S), 2.78 nM. Besides, the “agonist activity at rat recombinant 5-HT7 receptor” value (“agonist activity” for short) in data set [5] was “no detectable agonist activity”. The “antagonistic activity at rat recombinant 5-HT7 receptor” value in data set [6] is given as “antagonistic activity”. The Kb in data set [6] (setting [7]) was 0.7 nM.

Regarding `O=C1C[C@@H]2CCCN2C(=O)N1CCCCN1CCN(c2nsc3ccccc23)CC1` [Example 2, 2-[4-(4-Benzo[d]isothiazol-3-yl-piperazin-1-yl)-butyl]-tetrahydro-pyrrolo[1,2-c]pyrimidine-1,3-dione oxalate], the Kp at 1 h in data set [1] (brain/plasma) worked out at 0.49 ± 0.08. In addition, the Ki was 0.6 nM in data set [2] (read-out: Ki h5-HT2A), 0.06 nM in data set [3] (read-out: Ki h5-HT1A) and 5.4 nM in data set [4] (read-out: Ki hD2S). Also, in data set [5], the “agonist activity” value was “no detectable agonist activity”. Besides, the “antagonistic activity at rat recombinant 5-HT7 receptor” value in data set [6] is listed as “antagonistic activity”. The Kb in data set [6] (setting [7]) was found to be 0.6 nM.

Take `O=C1C[C@@H]2C[C@H]3C[C@H]3N2C(=O)N1CCCCN1CCN(c2nsc3ccccc23)CC1` [Example 11, 3-[4-(4-Benzo[d]isothiazol-3-yl-piperazin-1-yl)-butyl]-hexahydro-1b,3-diaza-cyclopropa[a]indene-2,4-dione oxalate]: the Kp at 1 h in data set [1] (in vivo) worked out at 0.09 ± 0.16. The Ki in data set [2] (Ki h5-HT2A) amounted to 1.02 nM; in data set [3] (Ki h5-HT1A) it was 0.29 nM; in data set [4] (Ki hD2S), 0.62 nM. In data set [5], the “agonist activity” value is listed as “no detectable agonist activity”. In data set [6], the Kb was determined as 0.17 nM. For the same compound, the “antagonistic activity at rat recombinant 5-HT7 receptor” value in data set [6] is on record as “antagonistic activity”.

For orientation: Ki means a dissociation constant, usually derived from enzyme kinetics or from competition with a known ligand.
